The data set can be described thus: distribution coefficient of water-octanol (log P), OECD Test Guideline 107. As to conditions: for log P (distribution coefficient of water-octanol): OECD Test Guideline 107.

One may read the logP as a log measure of how a compound divides between an organic and an aqueous phase. A high value points to a more lipophilic compound.

Description: Here, the distribution coefficient of water-octanol, that is, a log P value represents a value which is defined by OECD Test Guideline 107. As the log P value is high, hydrophobicity is high, and as the log P value is low, hydrophilicity is high.

Take `CCCC(=O)OCC(COC(=O)CCC)OC(=O)CCC` [glycerin tributyrate]: the logP (octanol/water) turned out to be 2.95.

In the case of `CCCC(=O)OCC(O)CO` (stereo not drawn) [butyric acid 2,3-dihydroxypropyl], the “log P (distribution coefficient of water-octanol)” value is reported as −0.21.

`CCCCCC(=O)OCC(O)CO` (stereo not drawn) [hexanoic acid 2,3-dihydroxypropyl]: the “log P (distribution coefficient of water-octanol)” value was found to be 0.85.

These data come from patent publication US9708500B2, “Liquid composition, pigment dispersion liquid, and aqueous ink composition for ink jet recording” (Seiko Epson Corporation, priority 2015, dated 2017).
